For 20 compounds, T/C results are on record in PubChem BioAssay AID330 (DTP/NCI, 2004).

This test relates to P388 leukemia ip, CD2F1 mice, survival T/C. Briefly: NCI In Vivo Anticancer Drug Screen. Data for tumor model P388 Leukemia (intraperitoneal) in CD2F1 (CDF1) mice. Particulars: endpoint: median survival time, higher = longer survival. A digest of the protocol:
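Mice carrying the transplanted tumor received test compound or vehicle. Survival was recorded in each group, and the value is the treated-group measurement divided by that of the vehicle-treated control group.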

Setting [1] is: dose: 30.0 mg/kg/injection, schedule: Q01DX005 (ip), vehicle: Klucel (hydroxypropylcellulose) (HPC).
Setting [2] is: dose: 60.0 mg/kg/injection, schedule: Q01DX005 (ip), vehicle: Klucel (hydroxypropylcellulose) (HPC).
[3] abbreviates: dose: 120.0 mg/kg/injection, schedule: Q01DX005 (ip), vehicle: Klucel (hydroxypropylcellulose) (HPC).
Where [4] appears, read: dose: 240.0 mg/kg/injection, schedule: Q01DX005 (ip), vehicle: Klucel (hydroxypropylcellulose) (HPC).
[5] abbreviates: dose: 60.0 mg/kg/injection, schedule: Q01DX005 (ip), vehicle: saline with Tween-80.
Where [6] appears, read: dose: 120.0 mg/kg/injection, schedule: Q01DX005 (ip), vehicle: saline with Tween-80.
The mark [7] stands for this setting: dose: 240.0 mg/kg/injection, schedule: Q01DX005 (ip), vehicle: saline with Tween-80.
Where [8] appears, read: dose: 100.0 mg/kg/injection, schedule: Q04DX003 (ip), vehicle: Klucel (hydroxypropylcellulose) (HPC).
The mark [9] stands for this setting: dose: 200.0 mg/kg/injection, schedule: Q04DX003 (ip), vehicle: Klucel (hydroxypropylcellulose) (HPC).
The mark [10] stands for this setting: dose: 400.0 mg/kg/injection, schedule: Q04DX003 (ip), vehicle: Klucel (hydroxypropylcellulose) (HPC).
Setting [11] is: dose: 50.0 mg/kg/injection, schedule: Q01DX005 (ip), vehicle: Klucel (hydroxypropylcellulose) (HPC).
Where [12] appears, read: dose: 100.0 mg/kg/injection, schedule: Q01DX005 (ip), vehicle: Klucel (hydroxypropylcellulose) (HPC).
Setting [13] is: dose: 200.0 mg/kg/injection, schedule: Q01DX005 (ip), vehicle: Klucel (hydroxypropylcellulose) (HPC).
Setting [14] is: dose: 25.0 mg/kg/injection, schedule: Q01DX009 (ip), vehicle: saline with Tween-80.
[15] abbreviates: dose: 50.0 mg/kg/injection, schedule: Q01DX009 (ip), vehicle: saline with Tween-80.
The mark [16] stands for this setting: dose: 50.0 mg/kg/injection, schedule: Q01DX005 (ip), vehicle: saline with Tween-80.
[17] abbreviates: dose: 100.0 mg/kg/injection, schedule: Q01DX005 (ip), vehicle: saline with Tween-80.
Setting [18] is: dose: 200.0 mg/kg/injection, schedule: Q01DX005 (ip), vehicle: saline with Tween-80.

Several values for one entry are separate records, joined by “and”; a condition that tells them apart may be missing. Identical values can stand only once. Toxic doses and inconclusive results are not listed.

In the case of `FC(F)(F)c1nc(SCc2ccc(Cl)cc2)n[nH]1`, the T/C is 103 % of control under setting [1], 96 % of control under setting [2], 98 % of control under setting [3] and 102 % of control under setting [4].

On to `COc1cccc(/C=C/C(C)=N/NC(N)=O)c1`, for which the T/C by setting is: under setting [1], 100 % of control; under setting [2], 101 % of control; under setting [3], 100 % of control; under setting [4], 95 % of control.

As for `CCc1cc(-n2c3c(CC)c(=O)c(CC)cc-3nc3ccccc32)cc(CC)c1O`, the T/C is 98 % of control (dose: 25.0 mg/kg/injection, schedule: Q01DX009 (ip), vehicle: saline); 109 % of control (dose: 50.0 mg/kg/injection, schedule: Q01DX009 (ip), vehicle: saline); 105 % of control (dose: 100.0 mg/kg/injection, schedule: Q01DX009 (ip), vehicle: saline).

`O=C1NC2C3CC(c4ccccc43)C12` (configuration not stated): the T/C is 105 % of control under setting [5], 109 % of control under setting [6] and 108 % of control under setting [7].

`COc1nc(NC2OCC(OC(C)=O)C(OC(C)=O)C2OC(C)=O)c(N=CC=Nc2c(NC3OCC(OC(C)=O)C(OC(C)=O)C3OC(C)=O)nc(OC)n(C)c2=O)c(=O)n1C` (configuration not stated): the T/C is 92 % of control under setting [5], 91 % of control under setting [6] and 91 % of control under setting [7].

For the compound `CC1(c2ccccc2)OC1C(=O)N(c1ccccc1)c1ccccc1` (configuration not stated), the T/C by setting is: under setting [8], 96 % of control; under setting [9], 94 % of control; under setting [10], 88 % of control.

For `NC(N)=NNC(O)(C(=O)O)C(=O)O`, the T/C under setting [11] was 100 % of control, the T/C under setting [12] was 96 % of control and the T/C under setting [13] is 96 % of control.

As to `Fc1ccc(CSC(=S)Nc2ccc(Br)cc2)cc1`, the T/C was 100 % of control (dose: 50.0 mg/kg/injection, schedule: Q01DX009 (ip), vehicle: suspension in saline); 108 % of control (dose: 100.0 mg/kg/injection, schedule: Q01DX009 (ip), vehicle: suspension in saline); 101 % of control (dose: 200.0 mg/kg/injection, schedule: Q01DX009 (ip), vehicle: suspension in saline).

In the case of `COc1ccc(-c2[nH]c(=O)c(C#N)c(C(=O)NN)c2-c2ccc(OC)cc2)cc1`, the T/C was 112 % of control under setting [5], 100 % of control under setting [6] and 89 % of control under setting [7].

For `CC12C=C3CC(OC(=O)c4ccccc4)CCC3(O1)c1ccccc12` (configuration not stated), the T/C was 99 % of control under setting [14]; 105 % of control under setting [15]; 95 % of control (dose: 100.0 mg/kg/injection, schedule: Q01DX009 (ip), vehicle: saline with Tween-80).

`Oc1cc(O)c2c(c1)Oc1cc(O)cc(O)c1C2`: the T/C was 100 % of control (dose: 25.0 mg/kg/injection, schedule: Q04DX003 (ip), vehicle: saline with Tween-80); 106 % of control under setting [16]; 98 % of control (dose: 50.0 mg/kg/injection, schedule: Q04DX003 (ip), vehicle: saline with Tween-80); 109 % of control under setting [17]; 97 % of control (dose: 100.0 mg/kg/injection, schedule: Q04DX003 (ip), vehicle: saline with Tween-80); 115 % of control under setting [18].

In the case of `C(NC=C1c2ccccc2-c2ccccc21)=C1c2ccccc2-c2ccccc21`, the T/C runs as follows: under setting [11], 100 % of control; under setting [12], 92 % of control; under setting [13], 94 % of control.

As for `c1ccc2c(c1)[nH]c1ccncc12`, the T/C is, setting by setting: under setting [14], 95 % of control; under setting [15], 95 % of control.

For the compound `CC(=O)Nc1ccc(/C=N/NC(=O)COc2ccccc2)cc1`, the T/C is, setting by setting: (dose: 60.0 mg/kg/injection, schedule: Q01DX005 (ip), vehicle: saline) 100 % of control; (dose: 120.0 mg/kg/injection, schedule: Q01DX005 (ip), vehicle: saline) 100 % of control; (dose: 240.0 mg/kg/injection, schedule: Q01DX005 (ip), vehicle: saline) 100 % of control.

With `COc1cccc(Sc2ccc([N+](=O)[O-])c3no[n+]([O-])c23)c1`, the T/C is, setting by setting: (dose: 0.93 mg/kg/injection, schedule: Q01DX005 (ip), vehicle: saline with Tween-80) 100 % of control; (dose: 0.93 mg/kg/injection, schedule: Q01DX009 (ip), vehicle: saline with Tween-80) 157 % of control; (dose: 1.56 mg/kg/injection, schedule: Q01DX005 (ip), vehicle: saline with Tween-80) 100 % of control and 97 % of control; (dose: 1.87 mg/kg/injection, schedule: Q01DX005 (ip), vehicle: saline with Tween-80) 99 % of control; (dose: 1.87 mg/kg/injection, schedule: Q01DX009 (ip), vehicle: saline with Tween-80) 163 % of control; (dose: 3.12 mg/kg/injection, schedule: Q01DX005 (ip), vehicle: saline with Tween-80) 100 % of control and 102 % of control. In addition, the T/C is 99 % of control (dose: 3.75 mg/kg/injection, schedule: Q01DX005 (ip), vehicle: saline with Tween-80); 99 % of control (dose: 3.75 mg/kg/injection, schedule: Q01DX009 (ip), vehicle: saline with Tween-80); 100 % of control and 106 % of control (dose: 6.25 mg/kg/injection, schedule: Q01DX005 (ip), vehicle: saline with Tween-80); 102 % of control (dose: 7.5 mg/kg/injection, schedule: Q01DX005 (ip), vehicle: saline with Tween-80); 102 % of control and 106 % of control (dose: 12.5 mg/kg/injection, schedule: Q01DX005 (ip), vehicle: saline with Tween-80); 106 % of control (dose: 15.0 mg/kg/injection, schedule: Q01DX005 (ip), vehicle: saline with Tween-80). The T/C reads like this: (dose: 15.0 mg/kg/injection, schedule: Q01DX009 (ip), vehicle: Klucel (hydroxypropylcellulose) (HPC)) 184 % of control; (dose: 15.0 mg/kg/injection, schedule: Q01DX009 (ip), vehicle: saline with Tween-80) 107 % of control; (dose: 25.0 mg/kg/injection, schedule: Q01DX005 (ip), vehicle: saline with Tween-80) 108 % of control and 111 % of control; (dose: 30.0 mg/kg/injection, schedule: Q01DX005 (ip), vehicle: saline with Tween-80) 109 % of control; (dose: 30.0 mg/kg/injection, schedule: Q01DX009 (ip), vehicle: Klucel (hydroxypropylcellulose) (HPC)) 166 % of control; under setting [5], 110 % of control. For the same compound, for the setting “dose: 60.0 mg/kg/injection, schedule: Q01DX009 (ip), vehicle: Klucel (hydroxypropylcellulose) (HPC)”, the T/C is 88 % of control.

Take `O=C1OCCOCCOCCOCCOC(=O)C1c1ccccc1`: the T/C runs as follows: under setting [8], 101 % of control; under setting [9], 101 % of control; under setting [10], 101 % of control.

`C1SSCC2=C1CSSC2`: the T/C runs as follows: under setting [5], 100 % of control; under setting [6], 100 % of control; under setting [7], 107 % of control.

In the case of `CCn1c2ccccc2c2cc(NC(=O)NC(=O)c3ccccc3)ccc21`, the T/C is, setting by setting: under setting [16], 90 % of control; under setting [17], 90 % of control; under setting [18], 87 % of control.

On to `CC(=O)NCCc1nc(-c2nc(C(=O)NCCCN)cs2)cs1`, for which the T/C was 93 % of control (dose: 12.5 mg/kg/injection, schedule: Q01DX009 (ip), vehicle: water); 98 % of control (dose: 25.0 mg/kg/injection, schedule: Q01DX009 (ip), vehicle: water); 108 % of control (dose: 50.0 mg/kg/injection, schedule: Q01DX009 (ip), vehicle: water); 99 % of control (dose: 100.0 mg/kg/injection, schedule: Q01DX009 (ip), vehicle: water); 98 % of control (dose: 200.0 mg/kg/injection, schedule: Q01DX009 (ip), vehicle: water).

Turning to `CC(=O)C/C(=N\NS(=O)(=O)c1cc(Cl)c(Cl)cc1Cl)c1ccc([N+](=O)[O-])cc1`, the T/C is 99 % of control (dose: 100.0 mg/kg/injection, schedule: Q04DX003 (ip), vehicle: saline); 100 % of control (dose: 200.0 mg/kg/injection, schedule: Q04DX003 (ip), vehicle: saline); 97 % of control (dose: 400.0 mg/kg/injection, schedule: Q04DX003 (ip), vehicle: saline).
